From publication PMC7999182, “Interaction of Remdesivir with Clinically Relevant Hepatic Drug Uptake Transporters” (Pharmaceutics, 2021)

What was measured:
[1] = test system: vector-transfected control cells; experiment: Remdesivir accumulation into vector-transfected control HEK cells; type: in vitro ADME, human; conditions: 5 µM remdesivir, 10 min
Source text: (§1) Generation, cultivation and characterization of human embryonic kidney (HEK) cells stably expressing OATP1B1 refseq (=OATP1B1*1a), OATP1B1*1b, OATP1B1*5 and OATP1B1*15 [18], OATP1B3 [19], OATP2B1 [13] and OCT1 [20] have been described previously. OATP1B1 cells were cultivated in minimal essential medium (Life Technologies, Paisley, UK) and OATP1B3, OATP2B1 and OCT1 cells were cultivated in Dulbecco’s modified Eagle medium (Sigma, Darmstadt, Germany). Cultivation media were supplemented with 10% fetal calf serum, 100 U/mL penicillin and 100 µg/mL streptomycin. Cells were grown at 37 °C and 5% CO2. Functionality of the cells was confirmed by measuring uptake of prototypic substrates (see Section 2.3 and supplementary material).
Uptake assays were conducted at 37 °C according to previously described methods. For this, cells were seeded in 24-well plates (320,000 cells/well) and cultured for 2 days. Cells were then incubated for a further 24 h in culture medium with 5 mM butyrate (OATP1B3, OATP2B1, OCT1) or 10 mM butyrate (OATP1B1) to increase protein levels of recombinant transporters. […]
Remdesivir was determined by UHPLC-MS-MS analysis on an Agilent 1290 infinity UHPLC system coupled to an Agilent 6495B triple quadrupole mass spectrometer (Agilent, Waldbronn, Germany) similar to a recently published method. […]

[2] = cited from earlier work
OATP1B1 [3] = biological target: T1, OATP1B1 (Homo sapiens, UniProt Q9Y6L6); experiment: Inhibition of OATP1B1-mediated BSP uptake; type: cell-based
T1 construct: expressed in transfected cells
T1 sequence (Q9Y6L6 1-691): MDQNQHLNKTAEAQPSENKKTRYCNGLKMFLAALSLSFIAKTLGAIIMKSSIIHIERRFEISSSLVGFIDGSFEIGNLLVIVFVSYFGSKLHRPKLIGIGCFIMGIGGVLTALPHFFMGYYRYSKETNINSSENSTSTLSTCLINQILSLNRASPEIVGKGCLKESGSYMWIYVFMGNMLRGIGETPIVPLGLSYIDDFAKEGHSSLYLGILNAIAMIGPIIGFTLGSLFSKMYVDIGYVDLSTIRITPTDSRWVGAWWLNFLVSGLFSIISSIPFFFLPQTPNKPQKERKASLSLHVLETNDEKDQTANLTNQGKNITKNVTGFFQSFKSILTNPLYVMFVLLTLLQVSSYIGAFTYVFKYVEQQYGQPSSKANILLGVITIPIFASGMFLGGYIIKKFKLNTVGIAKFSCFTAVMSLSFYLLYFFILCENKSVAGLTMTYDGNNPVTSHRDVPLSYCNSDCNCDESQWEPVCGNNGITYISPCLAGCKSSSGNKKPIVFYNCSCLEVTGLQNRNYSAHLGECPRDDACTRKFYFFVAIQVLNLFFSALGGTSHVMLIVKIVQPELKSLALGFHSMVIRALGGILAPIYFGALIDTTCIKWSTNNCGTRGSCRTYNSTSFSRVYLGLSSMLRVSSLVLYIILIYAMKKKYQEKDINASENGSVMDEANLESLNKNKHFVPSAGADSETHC
Source text: as §1
Prototypic substrate uptake was performed as described previously. For this, uptake solutions contained the respective substrate with tracer amounts of radiolabeled substrate. In case of inhibition studies, uptake solutions additionally contained different concentrations of remdesivir. […] Cells were then lysed with 0.2% sodium dodecyl sulfate and intracellular radioactivity was measured by liquid scintillation counting (Tricarb2800, PerkinElmer Life Sciences GmbH, Rodgau, Germany or Hidex 300SL TDCR liquid scintillation counter, Turku, Finland). […]

OATP1B1 [4] = test system: OATP1B1; design: method as in earlier work; conditions: prototypic substrate not stated; cited from earlier work

SMILES: CCC(CC)COC(=O)[C@H](C)N[P@](=O)(OC[C@H]1O[C@@](C#N)(c2ccc3c(N)ncnn23)[C@H](O)[C@@H]1O)Oc1ccccc1 [Remdesivir]
- Accumulation into control cells [1]: high remdesivir accumulation
- peak plasma concentration ([2]; 30 min after iv administration of 200 mg remdesivir for 30 min): ~10 µM
- t1/2 [2]: 1 h
- Cmax ([2]; intravenous 100 mg remdesivir, healthy adults): 3.7 µM
- Effect on prototypic substrate uptake (OATP1B1 [3]; 0.05 µM BSP, 10 min uptake, different remdesivir concentrations): significant concentration-dependent inhibitory effect
- Transporter inhibition at 10 µM (OATP1B1 [3]; 10 µM remdesivir, BSP as substrate): inhibition
- IC50 (OATP1B1 [4]): 2800 nM
